Entries after “also recorded” stand apart in the source; their conditions may differ. Like-named read-outs stand apart in the source and are kept apart here.
Key:
[1] = tested on: A-549 lung carcinoma; test: Cytotoxicity against solid tumor cells (Table 4); assay type: cell-based; details: Homo sapiens, A549, CCK-8, 72 hrs
Experimental: (§1) Compounds are also evaluated against A-549 lung carcinoma and SK-OV-3 ovarian adenocarcinoma cell lines using the methodology as for Table 3. The potency order for the compounds may vary in different tumor cell lines. […] Absorbance was measured using a Powerwave XS microplate spectrophotometer.

[2] = tested on: SK-OV-3 ovarian adenocarcinoma; test: Cytotoxicity against solid tumor cells (Table 4); assay type: cell-based; details: Homo sapiens, CCK-8, 72 hrs
Experimental: as §1

[3] = tested on: carrageenan-induced paw edema; test: Carrageenan-induced paw edema; assay type: in vivo, CD mice; details: FIG. 17; 10, 15, 20 mg/kg iv injection
Experimental: FIG. 17 compares the anti-inflammatory effect of Compound (D), acetylsalicylic acid (aspirin), and LIDEX against carrageenan-induced paw edema in CD mice. […] The first vertical bar in each set is the control. The second vertical bar in each set is acetylsalicylic acid (200 mg/kg, oral). The third vertical bar in each set is LIDEX cream administered locally, the fourth vertical bar in each set is Compound (D) (10 mg/kg iv injection), the fifth vertical bar in each set is Compound (D) (15 mg/kg iv injection), and the sixth vertical bar in each set is Compound (D) (20 mg/kg iv injection). 1% Carrageenan (20 μL, i.m., injected directly into the paw of CD mice to produce paw edema) was administered at time=0. Compound (D) was administered at 24 hours prior to the carrageenan injection, 1 hour prior to the carrageenan injection, and 6 hours after the carrageenan injection. Acetylsalicylic acid was administered at 1 hour prior to the carrageenan injection, and 6 hours after the carrageenan injection. LIDEX cream was administered at 1 hour prior to the carrageenan injection, and 6 hours after the carrageenan injection. * means P<0.05 and ** means P<0.01.
The comparisons are made by comparing the volumes of the inflamed pedis area (induced by a injection of a 1% carageenan solution) at different time points after the initial carageenan injection. […]

[4] = tested on: human colon carcinoma HCT-116 xenografts; details: mouse, in vivo
[5] = tested on: human colon carcinoma HCT-116 xenografts; test: Compound D with Iso-Oxazole-Fludelone or Isodehydelone in nude mice bearing HCT-116 xenografts
[6] = tested on: human lymphoblastic leukemic T-cell growth; test: Cytotoxic activity relative to stability during storage at −20° C. in DMSO (Table 10); assay type: cell-based; details: Homo sapiens, CCRF-CEM, 72 h, XTT, 72 hr
Text: Without wishing to be bound by theory, the oxidized versions may be active metabolites. This theory provides an explanation of the delayed onset of therapeutic effects seen in the figures herein. The oxidized compounds may be active agents that are formed slowly upon metabolic oxidation. […] The active metabolites may explain the biphasic pharmacological properties of panaxytriol or Compound D that have been observed (FIGS. 9B, C, D; FIGS. 11D, E, F, and FIGS. 12D, E). […] Induction of the phase 2 enzymes may slow oxidation of the compounds (Ng et al., Tetrahedron Letters. 49: 7178-7179 (2008)).

[7] = tested on: Rat pheochromocytoma cells (PC12 cells); test: Neurite outgrowth with NGF; assay type: cell-based; details: 50 ng/mL NGF, 60 μM panaxytriol, 96 hr, vs NGF only
Experimental: Rat pheochromocytoma cells (PC12 cells) were treated with 50 ng/mL of nerve growth factor (NGF) and with 60 μM panaxytriol for 96 hr. The cells were then compared with a similarly prepared control, lacking panaxytriol. […] This finding confirms that panaxytriol is useful for treating or preventing a neurotrophic disorder.

[8] = tested on: quinone reductase (NQO1) in Hepa 1c1c7 murine hepatoma cells; test: Phase 2 enzyme inducer activity (Prochaska microtiter plate bioassay)
Experimental: Pure panaxytriol was dissolved in dimethyl sulfoxide. Phase 2 enzyme inducer activity was measured using a rapid assay of activity of representative phase 2 enzyme in a cell line. This assay was originally developed by Prochaska and colleagues as in Prochaska H J, Santamaria A B, Talalay P. “Rapid detection of inducers of enzymes that protect against carcinogens.” Proc Natl Acad Sci US A 1992; 89:2394-2398, and has been further refined as in Fahey J W, Dinkova-Kostova A T, Stephenson K K, Talalay P. “The “Prochaska” microtiter plate bioassay for inducers of NQO1.” Methods Enzymol. 2004; 382:243-258, each of which are incorporated by reference in its entirety. Briefly, Hepa 1c1c7 murine hepatoma cells were grown in 96-well microtiter plates. Serial dilutions of the extracts or compounds which were assayed were added into the wells. After 48 hours, the cells were lysed and the activity of quinone reductase (NQO1) was assayed by the addition of a reaction mixture containing an NADPH-generating system, menadione and MTT. NQO1 catalyzes the reduction of menadione to menadiol by NADPH, and MTT is reduced nonenzymatically by menadiol, resulting in the formation of a blue color that can then be quantitated as in Prochaska H J, Santamaria A B. “Direct measurement of NAD(P)H:quinone reductase from cells cultured in microtiter wells: a screening assay for anticarcinogenic enzyme inducers.” Anal. Biochem. 1988; 169:328-336, which is incorporated by reference in its entirety. […] NQO1 activity and protein content of the lysate were measured in duplicate plates with an optical microtiter plate absorbance reader. […] One unit of inducer activity is defined as the amount that, when added to a single microtiter well, doubles the NQO1 specific activity. Sulforaphane and β-naphthoflavone were used as positive controls in each bioassay. […] NQO1 inducer activity was assayed as described herein, and is reported here as treated/control at different concentrations of ginseng extract or component per well. […] (+) Panaxytriol (molecular weight […]), (Δ) Protopanaxatriol (molecular weight 461), (◯) Korean red SUN GINSENG® extract. The reductase assay can also be performed as disclosed in PCT Publication No. WO 06/023821, the entire contents of which are hereby incorporated in the instant application.

| Compound | IC50 [1] [µM] | IC50 [2] [µM] | anti-inflammatory effect [3] | effect of co-administration on iso-oxazole-fludelone toxicity (body weight) [4] | body weight retention during Isodehydelone treatment ([4]; po) | effect on tumor size and body-weight ([5]; 10 mg/kg, Q3D×3, Q6D×3, i.v., FIGS. 4A-C) | effect of oral administration on toxicity of isodehydelone ([5]; FIG. 15, Compound (D) orally) | effect on therapeutic effect of Iso-oxazole-fludelone ([5]; FIGS. 4A, 4B) | IC50 ([6]; read-out: IC50 in μM CCRF-CEM, Table 10, Aug. 22, 2003 (Stored), same solution kept at −20° C. in DMSO) [µM] | IC50 ([6]; read-out: IC50 in μM CCRF-CEM, Table 10, Jul. 25, 2003 (Fresh)) [µM] | IC50 ([6]; read-out: IC50 in μM CCRF-CEM/VBL, Table 10, Aug. 22, 2003 (Stored), same solution kept at −20° C. in DMSO) [µM] | IC50 ([6]; read-out: IC50 in μM CCRF-CEM/VBL, Table 10, Jul. 25, 2003 (Fresh)) [µM] | neurite outgrowth [7] | potency as an inducer relative to protopanxadiol or protopanaxatriol [8] | significant cytotoxicity observed above ([8]; Hepa 1c1c7 cells) | inducer potency ([8]; NQO1) | concentration of doubling (CD), average ([8]; NQO1, 48 hours) [µM] |
| --- | --- | --- | --- | --- | --- | --- | --- | --- | --- | --- | --- | --- | --- | --- | --- | --- | --- |
| C=C[C@H](O)C#CC#CC[C@H]1OC(C)(C)O[C@@H]1CCCCCCC [Compound (D)] | 2.85 | 5.08 | mild, slow on-set, anti-inflammatory effect | significantly reduces iso-oxazole-fludelone toxicity | retained their body weight significantly better | reduced the tumor size and increased the subject body-weight | reduces the toxicity and lethality of isodehydelone alone | significantly enhances the therapeutic effect of Iso-oxazole-fludelone |  |  |  |  |  |  |  |  |  |
| C=C[C@@H](O)C#CC#CC[C@@H](O)[C@H](O)CCCCCCC [panaxytriol] |  |  |  |  |  |  |  |  | 11 | 6.34 | 19.4 | 4.71 ± 0.73 | enhanced neurite outgrowth; also recorded: significant neurite outgrowth | over 10 fold | above 0.5 μg/well | 5,760,000 U/g | 3.85 |
